In PMC6271529, “Studies on the Anticonvulsant Activity and Influence on GABA-ergic Neurotransmission of 1,2,4-Triazole-3-thione-Based Compounds” (Molecules, 2014):
Where two headings read alike, the source gives them in different places.

Legend:
[1] = system: maximal electroshock-induced seizures; assay: Maximal electroshock-induced seizure (MES) test in mice; assay type: in vivo, mouse; settings: for responders at 300 mg/kg / ED50: Mus musculus, ip; for responders at 300 mg/kg: read-out: percent of animals protected against MES-induced seizures; for PI (TD50/ED50): protective index
Procedure: Additionally, all efforts were made to minimize animal suffering and to use only the number of animals necessary to produce reliable scientific data.
In the initial stage of the study, groups of eight mice were supplied with the compounds (administered intraperitoneally) in a dose of 300 mg/kg and then exposed to electrical impulse at fixed intervals (15, 30, 60, 120 min).
Each mouse was used only once.
Fresh drug solutions were prepared on each day of experimentation and administered at 15, 30, 60 and 120 min. before the initiation of maximal electroconvulsions. Electroconvulsions were produced by a current (0.2 s stimulus duration; 500 V, 50 Hz, fixed current intensity of 25 mA) delivered via ear-clip electrodes by a Rodent Shocker generator (constant-current stimulator Type 221, Hugo Sachs Elektronik, Freiburg, Germany). The criterion for the occurrence of seizure activity was the tonic hind limb extension. The animals were administered with a constant dose of 300 mg/kg of each of the examined compounds and were subjected to MES-induced seizures. […] The animals were administered with different doses of the tested compounds so as to obtain a variable percentage of protection against maximal electroconvulsions, allowing the construction of dose-response relationship lines for each examined compound administered i.p. at various pretreatment times, according to Litchfield and Wilcoxon. Each ED50 value represents the dose of the studied compounds that is required to protect 50% of the animals tested against MES-induced seizures.

GABAA receptors = assay: Radioligand binding assay, [3H]muscimol, rat cerebral cortex; settings: compound 1 × 10^−6 M, [3H]muscimol, rat cerebral cortex;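 note: low percentages indicate weak binding of the compound to the receptor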
Procedure: Binding experiments were conducted in 96-well microplates in a total volume of 200 μL of appropriate buffer. The reaction mixture included 50 μL solution of test compound, 50 μL of radioligand, and […] the tissue suspension. Rat cerebral cortex was used for each receptor. […] Radioligand binding data were analyzed using iterative curve fitting routines (GraphPAD/Prism, Version 3.0, San Diego, CA, USA). Ki values were calculated from the Cheng and Prusoff equation [36].

[2] = 300 mg/kg i.p., pretreatment time 15 min, mice
[3] = 300 mg/kg i.p., pretreatment time 30 min, mice
[4] = 300 mg/kg i.p., pretreatment time 60 min, mice
[5] = 300 mg/kg i.p., pretreatment time 120 min, mice
[6] = 0.25 h, 300 mg/kg i.p., pretreatment time 15 min, mice
[7] = 0.5 h, 300 mg/kg i.p., pretreatment time 30 min, mice
[8] = 1 h, 300 mg/kg i.p., pretreatment time 60 min, mice
[9] = 2 h, 300 mg/kg i.p., pretreatment time 120 min, mice

Row | Compound | melting point | p/t, number of animals protected against MES-induced seizures / number tested [1, 2] | p/t, number of animals protected against MES-induced seizures / number tested [1, 3] | p/t, number of animals protected against MES-induced seizures / number tested [1, 4] | p/t, number of animals protected against MES-induced seizures / number tested [1, 5] | responders at 300 mg/kg [1, 6] | responders at 300 mg/kg [1, 7] | responders at 300 mg/kg [1, 8] | responders at 300 mg/kg [1, 9] | also measured
1 | CC(=O)c1ccc(-n2c(-c3cccc(Cl)c3)n[nH]c2=S)cc1 [Compound 11a, 4-(4-Acetylphenyl)-5-(3-chlorophenyl)-2,4-dihydro-3H-1,2,4-triazole-3-thione] | 218 to 220 °C | 1/8 | 1/8 | 1/8 | 0/8 | 12.5% | 12.5% | 12.5% | 0% | 
2 | Fc1ccc(-n2c(-c3ccc(Cl)cc3)n[nH]c2=S)c(F)c1 [Compound 13a, 5-(4-Chlorophenyl)-4-(2,4-difluorophenyl)-2,4-dihydro-3H-1,2,4-triazole-3-thione] | 196 to 198 °C | 8/8 | 8/8 | 8/8 | 8/8 | 100% | 100% | 100% | 100% | ED50 ([1]; pretreatment time 15 min, mice, read-out: ED50 ± S.E. (MES test)): 104 ± 15.8 mg/kg; ED50 ([1]; pretreatment time 30 min, mice, read-out: ED50 ± S.E. (MES test)): 100 ± 30.1 mg/kg; ED50 ([1]; pretreatment time 60 min, mice, read-out: ED50 ± S.E. (MES test)): 109 ± 11.9 mg/kg; ED50 ([1]; pretreatment time 120 min, mice, read-out: ED50 ± S.E. (MES test)): 80 ± 10.9 mg/kg; ED50 ([1]; pretreatment times 15, 30, 60, 120 min, read-out: ED50 (MES), range over pretreatment times): 80 to 109 mg/kg; time to peak of the anticonvulsant action ([1]; after i.p. administration, MES, mice): 120 min; PI (TD50/ED50) ([1]; chimney TD50 / MES ED50, pretreatment time 15 min): 1.9; PI (TD50/ED50) ([1]; chimney TD50 / MES ED50, pretreatment time 30 min): 1.9; PI (TD50/ED50) ([1]; chimney TD50 / MES ED50, pretreatment time 60 min): 1.6; PI (TD50/ED50) ([1]; chimney TD50 / MES ED50, pretreatment time 120 min): 2.7; onset of action ([1]; significant protection as early as 15 min after parenteral administration, MES, mice): quick onset of action
3 | S=c1[nH]nc(-c2ccc(Cl)cc2)n1-c1ccc(Cl)cc1Cl [Compound 14a, 5-(4-Chlorophenyl)-4-(2,4-dichlorophenyl)-2,4-dihydro-3H-1,2,4-triazole-3-thione] | 238 to 240 °C |  |  |  |  |  |  |  |  | acute adverse effects at the screening dose ([1]; 300 mg/kg i.p., mice, protective effect in MES could not be established): acute adverse effects
4 | CCN(CC)c1ccc(-n2c(-c3ccc(Cl)cc3)n[nH]c2=S)cc1 [Compound 18a, 5-(4-Chlorophenyl)-4-[4-(diethylamino)phenyl]-2,4-dihydro-3H-1,2,4-triazole-3-thione] | 264 to 266 °C | 0/8 | 0/8 | 1/8 | 0/8 | 0% | 0% | 12.5% | 0% | 
5 | NCCCC(=O)O [GABA, γ-aminobutyric acid] |  |  |  |  |  |  |  |  |  | Percent of Specific Binding, GABAA (GABAA receptors): 82%

Now from value to compound, other results behind:

Row | melting point | Compound | p/t, number of animals protected against MES-induced seizures / number tested [1, 2] | p/t, number of animals protected against MES-induced seizures / number tested [1, 3] | p/t, number of animals protected against MES-induced seizures / number tested [1, 4] | p/t, number of animals protected against MES-induced seizures / number tested [1, 5] | responders at 300 mg/kg [1, 6] | responders at 300 mg/kg [1, 7] | responders at 300 mg/kg [1, 8] | responders at 300 mg/kg [1, 9] | also measured
6 | 180 to 181 °C | S=c1n(CN2CCOCC2)nc(-c2ccc(Cl)cc2)n1-c1ccccc1Br [Compound 25a, 4-(2-Bromophenyl)-5-(4-chlorophenyl)-2-(morpholin-4-ylmethyl)-2,4-dihydro-3H-1,2,4-triazole-3-thione] | 0/8 | 0/8 | 0/8 | 0/8 | 0% | 0% | 0% | 0% | 
7 | 140 to 142 °C | S=c1n(CN2CCN(c3ccccc3)CC2)nc(-c2ccc(Cl)cc2)n1-c1ccccc1Br [Compound 26a, 4-(2-Bromophenyl)-5-(4-chlorophenyl)-2-[(4-phenylpiperazin-1-yl)methyl]-2,4-dihydro-3H-1,2,4-triazole-3-thione] | 0/8 | 0/8 | 0/8 | 0/8 | 0% | 0% | 0% | 0% | 
8 | 168 to 170 °C | Fc1ccc(N2CCN(Cn3nc(-c4ccc(Cl)cc4)n(-c4ccccc4Br)c3=S)CC2)cc1 [Compound 27a, 4-(2-Bromophenyl)-5-(4-chlorophenyl)-2-{[4-(4-fluorophenyl)piperazin-1-yl]methyl}-2,4-dihydro-3H-1,2,4-triazole-3-thione] | 0/8 | 0/8 | 0/8 | 0/8 | 0% | 0% | 0% | 0% | 
9 | 178 to 180 °C | S=c1n(CN2CCN(c3ccccc3)CC2)nc(-c2ccc(Cl)cc2)n1-c1ccc(Br)cc1 [Compound 29a, 4-(4-Bromophenyl)-5-(4-chlorophenyl)-2-[(4-phenylpiperazin-1-yl)methyl]-2,4-dihydro-3H-1,2,4-triazole-3-thione] | 0/8 | 0/8 | 0/8 | 0/8 | 0% | 0% | 0% | 0% | 
10 | 156 to 158 °C | Fc1ccc(N2CCN(Cn3nc(-c4ccc(Cl)cc4)n(-c4ccc(Br)cc4)c3=S)CC2)cc1 [Compound 30a, 4-(4-Bromophenyl)-5-(4-chlorophenyl)-2-{[4-(4-fluorophenyl)piperazin-1-yl]methyl}-2,4-dihydro-3H-1,2,4-triazole-3-thione] | 0/8 | 0/8 | 0/8 | 0/8 | 0% | 0% | 0% | 0% | 
